The values below come from patent publication US8143243B2, “Compounds for the treatment of hepatitis C” (Bristol-Myers Squibb Company, priority 2007, dated 2012).

One assay concerns HCV replicon cells. Kind of assay: HCV replicon FRET / luciferase assay. The assay is classed as cell-based. The note with it: Hepatitis C virus. In outline:
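Replicon cells + titrated cpds, 37 °C CO2. Alamar blue for cytotoxicity, PBS rinse, then lysis reagent w/ 20 μM FRET peptide (EDANS/DABCYL), 150 mM NaCl; kinetic read ex340/em490, 20 cycles. Alt: Dual-Glo luciferase. EC50 = 50% drop in FRET/luciferase signal after background subtraction.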

The next assay concerns the target T1, HCV NS5B (Hepatitis C virus genotype 1b, UniProt Q9WMX2).
T1 construct: The protein was expressed with an 18 amino acid C-terminal truncation to enhance the solubility; made in house; host or cells: E. coli BL21 (DE3)
As to the kind of experiment: HCV NS5B RdRp enzyme assay (standard / modified). The assay is classed as biochemical. In outline: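 NS5B genotype 1b, 18-aa C-terminal truncation, E. coli-expressed; polyA template with biotinylated oligo-dT12 primer, 3H-UTP 0.29 μM, 30° C, SPA read-out in 20 mM Hepes pH 7.5, 2% DMSO. Standard: 28 nM enzyme, 6 nM template, 180 nM primer, 60 min; modified: 14 nM enzyme, 0.2 nM template, 20 nM bead-precaptured primer, 4 h. IC50 from seven concentrations.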

The mark [1] stands for this setting: HCV replicon cells, FRET or luciferase readout, read-out: EC50.
Where [2] appears, read: HCV RdRp genotype 1b enzyme, read-out: IC50.

Molecules are shown by their SMILES. pEC50, pIC50: −log10 of the molar value. Read-outs that look alike come from different tables or passages of the source.

T1 sequence (Q9WMX2 2420-2992): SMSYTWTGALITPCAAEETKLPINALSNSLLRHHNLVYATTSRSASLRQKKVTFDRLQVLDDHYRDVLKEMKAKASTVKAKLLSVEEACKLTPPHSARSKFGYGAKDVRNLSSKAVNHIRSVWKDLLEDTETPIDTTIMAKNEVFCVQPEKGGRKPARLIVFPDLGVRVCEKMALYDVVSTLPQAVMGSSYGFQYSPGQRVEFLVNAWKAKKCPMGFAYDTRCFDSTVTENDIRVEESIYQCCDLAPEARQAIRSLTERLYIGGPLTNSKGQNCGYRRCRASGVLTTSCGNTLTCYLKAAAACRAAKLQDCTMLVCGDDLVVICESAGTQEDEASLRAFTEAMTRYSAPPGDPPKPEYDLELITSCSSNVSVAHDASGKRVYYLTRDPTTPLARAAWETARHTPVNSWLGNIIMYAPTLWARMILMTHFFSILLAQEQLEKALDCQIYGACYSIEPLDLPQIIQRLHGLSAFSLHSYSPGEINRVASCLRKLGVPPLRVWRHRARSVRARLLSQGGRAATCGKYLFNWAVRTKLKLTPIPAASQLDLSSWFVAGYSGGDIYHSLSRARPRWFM

As usually defined, the pEC50 is −log10 of the EC50, conventionally taken in molar units. Usually pIC50 stands for the negative decadic logarithm of the IC50, by convention in mol/L. For `COc1ccc2c(c1)C=C(c1c(C(=O)N3C4CCCC3COC4)cnn1C)Cn1c-2c(C2CCCCC2)c2ccc(C(=O)NS(=O)(=O)C3CCC3)cc21`, the pEC50 in the assay with HCV replicon cells was 6.30 to 9.00. On HCV NS5B, this compound had a pIC50 of 6.30 to 9.00.

For `COc1ccc2c(c1)C=C(c1c(C(=O)N3CCOCC3)ccn1C(C)C)Cn1c-2c(C2CCCCC2)c2ccc(C(=O)NS(=O)(=O)C(C)C)cc21`, in the assay with HCV replicon cells (setting [1]), the negative logarithm of the EC50 (pEC50) was 6.30 to 9.00. The pIC50 at HCV NS5B (setting [2]) was 6.30 to 9.00.

On to `COc1ccc2c(c1)C=C(c1c(C(=O)N3C4COCC3COC4)cnn1C(C)C)Cn1c-2c(C2CCCCC2)c2ccc(C(=O)NS(=O)(=O)CC(C)C)cc21`, for which, in the assay on HCV replicon cells, the pEC50 is 6.30 to 9.00. On HCV NS5B, this compound gave a pIC50 of 6.30 to 9.00.

`COc1ccc2c(c1)C=C(c1c(C(=O)N3C4COCC3COC4)cnn1C)Cn1c-2c(C2CCCCC2)c2ccc(C(=O)NS(=O)(=O)C(C)C)cc21`: in the assay on HCV replicon cells, the pEC50 was 6.30 to 9.00. Besides, the pIC50 against HCV NS5B was 6.30 to 9.00.

As for `COc1ccc2c(c1)C=C(c1c(C(=O)N3CCOCC3)cnn1C)Cn1c-2c(C2CCCCC2)c2ccc(C(=O)NS(=O)(=O)N3CCOCC3)cc21`, the pEC50 in the assay with HCV replicon cells (setting [1]) is 6.30 to 9.00. Besides, at HCV NS5B (setting [2]), the pIC50 is above 7.70.

With `CCOC(=O)c1cnn(C)c1C1=Cc2cc(OC)ccc2-c2c(C3CCCCC3)c3ccc(C(=O)OC(C)(C)C)cc3n2C1`, the negative logarithm of the EC50 (pEC50) with HCV replicon cells (setting [1]) is 6.30 to 9.00. For the same compound, the negative-log IC50 (pIC50) on HCV NS5B (setting [2]) is below 7.40.

For `CCOC(=O)N1CCN(C(=O)c2cnn(C)c2C2=Cc3cc(OC)ccc3-c3c(C4CCCCC4)c4ccc(C(=O)NS(=O)(=O)N5CCOCC5)cc4n3C2)CC1`, in the assay with HCV replicon cells (setting [1]), the pEC50 is 6.30 to 9.00. On HCV NS5B (setting [2]), the negative logarithm of the IC50 (pIC50) was 6.30 to 9.00.

Regarding `COc1ccc2c(c1)C=C(c1c(C(=O)O)c(C)nn1C)Cn1c-2c(C2CCCCC2)c2ccc(C(=O)NS(=O)(=O)C(C)C)cc21`, the pEC50 in the assay on HCV replicon cells (setting [1]) is below 6.30. Also, the pIC50 at HCV NS5B (setting [2]) is 6.30 to 9.00.

As to `COc1ccc2c(c1)C=C(c1c(C(=O)N3CCN4CCCC4C3)cnn1C)Cn1c-2c(C2CCCCC2)c2ccc(C(=O)NS(=O)(=O)N3CCOCC3)cc21` (stereo not drawn), in the assay with HCV replicon cells (setting [1]), the pEC50 was 6.30 to 9.00. Further, the negative logarithm of the IC50 (pIC50) at HCV NS5B (setting [2]) was 6.30 to 9.00.

As to `COc1ccc2c(c1)C=C(c1c(C(=O)N3CCC(N4CCCC4)CC3)cnn1C)Cn1c-2c(C2CCCCC2)c2ccc(C(=O)NS(=O)(=O)N3CCOCC3)cc21`, the pEC50 with HCV replicon cells (setting [1]) was below 6.30. In addition, at HCV NS5B (setting [2]), the negative-log IC50 (pIC50) was 6.30 to 9.00.

Regarding `COc1ccc2c(c1)C=C(c1c(C(=O)N3CCOCC3)cnn1C(C)C)Cn1c-2c(C2CCCCC2)c2ccc(C(=O)NS(=O)(=O)N(C)C)cc21`, the negative-log EC50 (pEC50) with HCV replicon cells (setting [1]) was 6.30 to 9.00. The pIC50 at HCV NS5B (setting [2]) is 6.30 to 9.00.

Regarding `COc1ccc2c(c1)C=C(c1c(C(=O)N3CCCC3CN3CCCCC3)cnn1C)Cn1c-2c(C2CCCCC2)c2ccc(C(=O)NS(=O)(=O)N3CCOCC3)cc21` (stereo not drawn), the negative-log EC50 (pEC50) with HCV replicon cells (setting [1]) was 6.30 to 9.00. The pIC50 on HCV NS5B (setting [2]) was 6.30 to 9.00.

On to `COc1ccc2c(c1)C=C(c1c(C(=O)N3C4C=C(C)CC3CC4)cnn1C(C)C)Cn1c-2c(C2CCCCC2)c2ccc(C(=O)NS(=O)(=O)C(C)C)cc21` (stereo not drawn), for which the negative-log EC50 (pEC50) in the assay on HCV replicon cells was 6.30 to 9.00. In addition, at HCV NS5B, the pIC50 is 6.30 to 9.00.

As to `COc1ccc2c(c1)C=C(c1c(C(=O)N3CCN(C)CC3)c(C)nn1C(C)C)Cn1c-2c(C2CCCCC2)c2ccc(C(=O)NS(=O)(=O)C(C)C)cc21`, the negative-log EC50 (pEC50) in the assay on HCV replicon cells (setting [1]) was 6.30 to 9.00. Moreover, at HCV NS5B (setting [2]), the pIC50 is 6.30 to 9.00.

For `COc1ccc2c(c1)C=C(c1c(C(=O)N3CCOCC3)c(C)nn1C)Cn1c-2c(C2CCCCC2)c2ccc(C(=O)NS(=O)(=O)N(C)C)cc21`, the pEC50 in the assay on HCV replicon cells (setting [1]) is 6.30 to 9.00. On HCV NS5B (setting [2]), the negative logarithm of the IC50 (pIC50) is 6.30 to 9.00.

With `COc1ccc2c(c1)C=C(c1c(C(=O)N3CCOCC3)cnn1C)Cn1c-2c(C2CCCCC2)c2ccc(C(=O)NS(=O)(=O)C(C)C)cc21`, the negative logarithm of the EC50 (pEC50) in the assay on HCV replicon cells (setting [1]) was 6.30 to 9.00. Moreover, the negative logarithm of the IC50 (pIC50) at HCV NS5B (setting [2]) is 6.30 to 9.00.

Consider `COc1ccc2c(c1)C=C(c1ocnc1C(=O)N1CCOCC1)Cn1c-2c(C2CCCCC2)c2ccc(C(=O)NS(=O)(=O)C(C)C)cc21`, for which, in the assay on HCV replicon cells (setting [1]), the pEC50 is 6.30 to 9.00. Moreover, the negative logarithm of the IC50 (pIC50) at HCV NS5B (setting [2]) was 6.30 to 9.00.

Regarding `CCN1C[C@@H]2C[C@H]1CN2C(=O)c1cnn(C)c1C1=Cc2cc(OC)ccc2-c2c(C3CCCCC3)c3ccc(C(=O)NS(=O)(=O)C4CCC4)cc3n2C1`, the pEC50 in the assay with HCV replicon cells (setting [1]) was 6.30 to 9.00. In addition, on HCV NS5B (setting [2]), the pIC50 is 6.30 to 9.00.

For `COc1ccc2c(c1)C=C(c1c(C(=O)N3C[C@@H](C)O[C@@H](C)C3)ccn1C(C)C)Cn1c-2c(C2CCCCC2)c2ccc(C(=O)NS(=O)(=O)C(C)C)cc21`, the pEC50 in the assay on HCV replicon cells (setting [1]) was 6.30 to 9.00. Besides, at HCV NS5B (setting [2]), the negative-log IC50 (pIC50) is 6.30 to 9.00.

In the assay with HCV replicon cells, `COc1ccc2c(c1)C=C(c1c(C(=O)N3C4CCC3CC(C)(O)C4)cnn1CC(F)(F)F)Cn1c-2c(C2CCCCC2)c2ccc(C(=O)NS(=O)(=O)C(C)C)cc21` (stereo not drawn) showed a negative logarithm of the EC50 (pEC50) of 6.30 to 9.00. Besides, the pIC50 at HCV NS5B is 6.30 to 9.00.

In the case of `COc1ccc2c(c1)C=C(c1c(C(=O)N3CCOCC3)cnn1C)Cn1c-2c(C2CCCCC2)c2ccc(C(=O)NS(=O)(=O)C3CCCC3)cc21`, the pEC50 in the assay on HCV replicon cells (setting [1]) is 6.30 to 9.00. For the same compound, the negative-log IC50 (pIC50) at HCV NS5B (setting [2]) is 6.30 to 9.00.

As for `CCn1ncc(C(=O)N2CCOCC2)c1C1=Cc2cc(OC)ccc2-c2c(C3CCCCC3)c3ccc(C(=O)N4CCOCC4)cc3n2C1`, the pEC50 with HCV replicon cells (setting [1]) is 6.30 to 9.00. The pIC50 at HCV NS5B (setting [2]) was below 6.30.

For `COc1ccc2c(c1)C=C(c1c(C(=O)N3CCCN(C)CC3)cnn1C)Cn1c-2c(C2CCCCC2)c2ccc(C(=O)NS(=O)(=O)N3CCOCC3)cc21`, the pEC50 in the assay with HCV replicon cells (setting [1]) was 6.30 to 9.00. Further, on HCV NS5B (setting [2]), the pIC50 was above 7.70.

For the compound `COc1ccc2c(c1)C=C(c1c(C(=O)N3C4CCC3CN(C)C4)cnn1C)Cn1c-2c(C2CCCCC2)c2ccc(C(=O)NS(=O)(=O)N3CCCC3)cc21`, the pEC50 in the assay with HCV replicon cells is 6.30 to 9.00. This compound also had a negative-log IC50 (pIC50) on HCV NS5B of 6.30 to 9.00.

With `CCn1nc(C)c(C(=O)N2CC3CCC(C2)O3)c1C1=Cc2cc(OC)ccc2-c2c(C3CCCCC3)c3ccc(C(=O)NS(=O)(=O)C(C)C)cc3n2C1`, the negative-log EC50 (pEC50) with HCV replicon cells (setting [1]) was 6.30 to 9.00. Also, the negative-log IC50 (pIC50) on HCV NS5B (setting [2]) is 6.30 to 9.00.

Consider `COc1ccc2c(c1)C=C(c1c(C(=O)N3C[C@@H](C)N(C)[C@@H](C)C3)c(C)nn1C(C)C)Cn1c-2c(C2CCCCC2)c2ccc(C(=O)NS(=O)(=O)C(C)C)cc21`, for which, in the assay on HCV replicon cells (setting [1]), the pEC50 is 6.30 to 9.00. In addition, the pIC50 on HCV NS5B (setting [2]) was 6.30 to 9.00.

For `COc1ccc2c(c1)C=C(c1c(C(=O)N3C[C@@H](C)O[C@@H](C)C3)c(C)nn1C(C)C)Cn1c-2c(C2CCCCC2)c2ccc(C(=O)NS(=O)(=O)C(C)C)cc21`, the negative-log EC50 (pEC50) in the assay on HCV replicon cells (setting [1]) was 6.30 to 9.00. Moreover, on HCV NS5B (setting [2]), the pIC50 was 6.30 to 9.00.

For `COc1ccc2c(c1)C=C(c1c(C(=O)N(C)C3CCN(C)C3)cnn1C)Cn1c-2c(C2CCCCC2)c2ccc(C(=O)NS(=O)(=O)N3CCOCC3)cc21` (stereo not drawn), in the assay on HCV replicon cells (setting [1]), the pEC50 is 6.30 to 9.00. Moreover, the pIC50 at HCV NS5B (setting [2]) is 6.30 to 9.00.

As to `COc1ccc2c(c1)C=C(c1c(C(=O)N3C[C@H]4CC[C@@H](C3)N4C)cnn1C(C)C)Cn1c-2c(C2CCCCC2)c2ccc(C(=O)NS(=O)(=O)CC(C)C)cc21`, the pEC50 in the assay on HCV replicon cells was 6.30 to 9.00. The same compound gave a negative logarithm of the IC50 (pIC50) against HCV NS5B of 6.30 to 9.00.

As to `COc1ccc2c(c1)C=C(c1c(C(=O)N3C4COCC3COC4)cnn1C)Cn1c-2c(C2CCCCC2)c2ccc(C(=O)NS(=O)(=O)N3CCOCC3)cc21`, the pEC50 in the assay on HCV replicon cells is 6.30 to 9.00. Moreover, on HCV NS5B, the negative logarithm of the IC50 (pIC50) was 6.30 to 9.00.
